Test results published in patent US20210395313A1, “PEPTIDE PAC1 ANTAGONISTS” (AMGEN INC., priority 2017, published 2021).
Bridges are numbered along the chain shown (N, C = ends). Where no end group is shown, it is not given here.

Tests used:
human PAC1 receptor = target: T1, human PAC1 receptor (Homo sapiens, UniProt P41586); assay: LANCE Ultra cAMP accumulation antagonist assay in SHSY-5Y cells; assay type: cell-based;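 also: inhibition of cAMP accumulation evoked by PAC1 agonist at its EC80 in SHSY-5Y cells endogenously expressing receptor, 30 min preincubation then 15 min agonist, TR-FRET readout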
T1 construct: SHSY-5Y (human neuroblastoma cell line) and RG-2 (rat glioma cell line) cells endogenously express human and rat PAC1 receptors, respectively; endogenous in cells; host or cells: SHSY-5Y human neuroblastoma cells
T1 sequence (P41586 21-468): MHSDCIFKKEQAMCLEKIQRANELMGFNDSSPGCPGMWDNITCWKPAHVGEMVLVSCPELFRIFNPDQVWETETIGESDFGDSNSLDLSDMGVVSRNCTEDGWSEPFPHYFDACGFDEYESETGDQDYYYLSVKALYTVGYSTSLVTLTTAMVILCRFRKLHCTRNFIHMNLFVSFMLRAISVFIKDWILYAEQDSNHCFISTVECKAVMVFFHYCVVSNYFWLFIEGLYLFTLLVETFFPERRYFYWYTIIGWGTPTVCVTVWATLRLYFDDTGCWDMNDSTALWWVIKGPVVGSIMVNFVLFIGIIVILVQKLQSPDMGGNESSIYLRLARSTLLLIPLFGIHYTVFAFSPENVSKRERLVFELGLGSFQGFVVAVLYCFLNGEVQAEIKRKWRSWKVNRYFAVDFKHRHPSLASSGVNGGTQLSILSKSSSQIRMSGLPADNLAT
Procedure: In order to determine the potency of peptide antagonists at the PAC1 receptor, functional cAMP accumulation assays using LANCE Ultra cAMP assay kit to measure the agonist and antagonist activity of PAC1 peptides were used. SHSY-5Y (human neuroblastoma cell line) and RG-2 (rat glioma cell line) cells endogenously express human and rat PAC1 receptors, respectively. Agonist activity of PAC1 peptides was tested by incubating with SHSY-5Y at 2,000 cells per well or RG-2 at 5,000 cells per well for 15 minutes at room temperature. PAC1 receptor agonist PACAP38 or maxadilan was included as a positive control. The reaction was stopped by adding detection mixture, europium (Eu) chelate-labeled cAMP tracer and cAMP-specific monoclonal antibodies labeled with the ULight™ dye, to all wells followed by a 60-minute incubation at room temperature. The assay plates were then read on an EnVision instrument at an emission wavelength of 665 and 615 nm and data were analyzed using Genedata Screener or GraphPad Prism software. A similar procedure was used in the antagonist assays by using a fixed concentration of PAC1 agonist. The concentrations of agonists were chosen based on their ECK) values at PAC1 receptors in SHSY-5Y or RG-2 cells. SHSY-5Y or RG-2 cells were added into 96-well half-area white plates. Serially diluted PAC1 peptides at ten concentrations were added and incubated for 30 minutes at room temperature. PAC1 agonist at EC80 concentration was then added and further incubated for 15 minutes at room temperature. The reaction was stopped by adding detection mixture to all wells followed by a 60-minute incubation at room temperature. The assay plates were read and analyzed the same way as that of agonist assay. Cells, agonists, and PAC1 peptides were prepared in freshly made assay buffer (F-12, 0.5 mM IBMX, 0.1 or 0.4% BSA (pH 7.4)). Detection mixture was made by mixing a 1/50 dilution of the Eu-cAMP tracer stock solution in cAMP Detection Buffer and a 1/150 dilution of the ULight-anti-cAMP stock solution in cAMP Detection Buffer. Europium (Eu) chelate-labeled cAMP tracer, cAMP-specific monoclonal antibodies labeled with the ULight™ dye, BSA, and detection buffer were provided in LANCE Ultra cAMP Kit from PerkinElmer

rat PAC1 receptor = target: T2, rat PAC1 receptor (Rattus norvegicus, UniProt P32215); assay: LANCE Ultra cAMP accumulation antagonist assay in RG-2 cells; assay type: cell-based;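 also: RG-2 rat glioma cells endogenously expressing PAC1, test peptide preincubated 30 min, then PAC1 agonist added at its EC80 for 15 min, cAMP accumulation read by LANCE Ultra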
T2 construct: SHSY-5Y (human neuroblastoma cell line) and RG-2 (rat glioma cell line) cells endogenously express human and rat PAC1 receptors, respectively; endogenous in cells; host or cells: RG-2 rat glioma cells
T2 sequence (P32215 20-523): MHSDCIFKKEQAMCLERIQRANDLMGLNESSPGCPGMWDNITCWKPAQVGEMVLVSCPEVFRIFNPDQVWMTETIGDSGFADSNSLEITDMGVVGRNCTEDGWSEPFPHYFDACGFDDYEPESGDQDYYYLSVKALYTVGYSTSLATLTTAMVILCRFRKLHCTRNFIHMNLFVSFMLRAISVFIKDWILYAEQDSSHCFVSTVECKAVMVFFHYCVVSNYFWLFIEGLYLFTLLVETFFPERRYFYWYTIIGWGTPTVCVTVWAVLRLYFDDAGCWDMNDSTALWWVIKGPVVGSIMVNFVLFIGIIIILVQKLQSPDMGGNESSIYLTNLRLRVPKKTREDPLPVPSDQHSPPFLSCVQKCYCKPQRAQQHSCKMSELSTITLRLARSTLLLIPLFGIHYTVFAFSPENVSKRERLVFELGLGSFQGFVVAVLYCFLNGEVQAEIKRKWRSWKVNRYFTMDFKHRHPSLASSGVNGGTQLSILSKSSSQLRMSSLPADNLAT

| Substance | IC50 (human PAC1 receptor) [nM] | IC50 (rat PAC1 receptor) [nM] |
| --- | --- | --- |
| CDATCQFRKAIDDCVRQAHHSNVPGSVFKACMKQKKKEWKAG-NH2 (disulfide 1-5, 14-31) [compound 79] | 0.01 to 1 | < 0.01 |
| CDATCQFRKAIDDCVRQAHHSNVPGSVFKACMKQKKKEWKAGH (disulfide 1-5, 14-31) [SEQ ID NO 156] | 0.01 to 1 | 0.01 to 1 |
| CDATCQFRKAIDDCVRQAHHSNVPGSVFKACMKQKKKEWKAGY (disulfide 1-5, 14-31) [SEQ ID NO 86] | 0.01 to 1 | 0.01 to 1 |
| CDATCQFRKAIDDCVRQAHHSNVPGSVFKACMKQKKKEWKAH (disulfide 1-5, 14-31) [compound 99] | 0.01 to 1 | 0.01 to 1 |
| CDATCQFRKAIDDCVRQAHHSNVPGSVFKACMKQKKKEWKAN (disulfide 1-5, 14-31) [compound 87] | 0.01 to 1 | 0.01 to 1 |
| CDATCQFRKAIDDCVRQAHHSNVPGSVWKACMKQKKKEWKAGH (disulfide 1-5, 14-31) [compound 106] | 0.01 to 1 | 0.01 to 1 |
| CDATCQFRKAIDDCVRQAYHSNVPGSVFKACMKQKKKEWKAGH (disulfide 1-5, 14-31) [compound 84] | 0.01 to 1 | 0.01 to 1 |
| CDATCQFRKAIDDCVWFAWHSNVPGSVFKACMKQKKKEFKAG-NH2 (disulfide 1-5, 14-31) [compound 148] | 0.01 to 1 | 0.01 to 1 |
| CDATCQFRKAIDDCVWKAFHANVPGSVFKACMKQKKKEFKAG-NH2 (disulfide 1-5, 14-31) [compound 118] | 0.01 to 1 | 0.01 to 1 |
| CDATCQFRKAIDDCVWYSMHSNVPGSVFKACMKQKKKEFKAG-NH2 (disulfide 1-5, 14-31) [compound 133] | 0.01 to 1 | 0.01 to 1 |
| CDATCQFRKAIDDCVYSAWHANVPGSVFKACMKQKKKEFKAG-NH2 (disulfide 1-5, 14-31) [compound 137] | 0.01 to 1 | 0.01 to 1 |
| CDATCQFRKAIDDCVYSAWHSNVPGSVFKACMKQKKKEFKAG-NH2 (disulfide 1-5, 14-31) [compound 83] | 0.01 to 1 | 0.01 to 1 |
| CDATCQFRKAIDDCWIVAWHANVPGSVFKACMKQKKKEFKAG-NH2 (disulfide 1-5, 14-31) [compound 129] | 0.01 to 1 | 0.01 to 1 |
| CDATCQFRKAIDDCWIVAWHSNVPGSVFKACMKQKKKEFKAG-NH2 (disulfide 1-5, 14-31) [compound 73] | 0.01 to 1 | 0.01 to 1 |
| CDATCQFRKAIDDCWKQAHHSNVPGSVFKACMKQKKKEFKAG-NH2 (disulfide 1-5, 14-31) [compound 80] | 0.01 to 1 | < 0.01 |
| CDATCQFRKAIDDCWMLSWHANVPGSVFKACMKQKKKEFKAG-NH2 (disulfide 1-5, 14-31) [compound 92] | 0.01 to 1 | 0.01 to 1 |
| CDATCQFRKAIDDCWMLSWHANVPGSVFKACMKQKKKEFKAGH (disulfide 1-5, 14-31) [compound 111] | 0.01 to 1 | 0.01 to 1 |
| CDATCQFRKAIDDCWVIAWHSNVPGSVFKACMKQKKKEFKAG-NH2 (disulfide 1-5, 14-31) [compound 130] | 0.01 to 1 | < 0.01 |
| CDATCQFRKAIDDCWVQAWHSNVPGSVFKACMKQKKKEFKAG-NH2 (disulfide 1-5, 14-31) [compound 134] | 0.01 to 1 | 0.01 to 1 |
| CDATCQFRKAIDDCYKQAHHSNVPGSVFKACMKQKKKEFKAGH (disulfide 1-5, 14-31) [compound 47] | 0.01 to 1 | 0.01 to 1 |
| CDATCQFRKAIDDCYWIAMHSNVPGSVWKACMKQKKKEFKAG-NH2 (disulfide 1-5, 14-31) [compound 147] | 0.01 to 1 | 0.01 to 1 |

| Substance | IC50 (human PAC1 receptor) [nM] | IC50 (rat PAC1 receptor) [nM] |
| --- | --- | --- |
| CDATCQFRKAIDDCYWQAIHANVPGSVWKACMKFRFNVWKAG-NH2 (disulfide 1-5, 14-31) [compound 54] | 1 to 100 | 0.01 to 1 |
| CDATCQFRKAIDDCYWQAIHANVPGSVWKACMKQKKKEFKAG-NH2 (disulfide 1-5, 14-31) [compound 138] | 0.01 to 1 | 0.01 to 1 |
| CDATCQFRKAIDDCYYRAWHSNVPGSVFKACMKQKKKEFKAG-NH2 (disulfide 1-5, 14-31) [compound 104] | 0.01 to 1 | 0.01 to 1 |
| CDATCQFRKAIDDCYYRSHHSNVPGSVFKACMKQKKKEFKAG-NH2 (disulfide 1-5, 14-31) [compound 45] | 0.01 to 1 | 0.01 to 1 |
| CDATCQFRKAIDDCYYRSHSNVPGSVFKACMKQKKKEFKAG-NH2 (disulfide 1-5, 14-30) [compound 42] | 0.01 to 1 | 0.01 to 1 |
| CDATCQFRKAIDDCYYRSKHSNVPGSVFKACMKQKKKEFKAG-NH2 (disulfide 1-5, 14-31) [compound 43] | 0.01 to 1 | < 0.01 |
| CDATCQFRKAIDDCYYRSRHSNVPGSVFKACMKQKKKEFKAG-NH2 (disulfide 1-5, 14-31) [compound 44] | 0.01 to 1 | < 0.01 |
| CDATCQFRKAIDDCYYRSWHANVPGSVFKACMKQKKKEWKAG-NH2 (disulfide 1-5, 14-31) [compound 60] | 0.01 to 1 | 0.01 to 1 |
| CDATCQFRKAIDDCYYRSWHANVPGSVFKACMKQKKKEWKAGN (disulfide 1-5, 14-31) [compound 62] | 1 to 100 | 0.01 to 1 |
| CDATCQFRKAIDDCYYRSWHANVPGSVFKACMKQKKKEWKAGY (disulfide 1-5, 14-31) [compound 66] | 0.01 to 1 | 0.01 to 1 |
| CDATCQFRKAIDDCYYRSWHSNVPGSVFKACMKFRFNVWKAG-NH2 (disulfide 1-5, 14-31) [compound 67] | 1 to 100 | 0.01 to 1 |
| CDATCQFRKAIDDCYYRSWHSNVPGSVFKACMKQKKKEFKAG (disulfide 1-5, 14-31) [compound 64] | 1 to 100 | 0.01 to 1 |
| CDATCQFRKAIDDCYYRSWHSNVPGSVFKACMKQKKKEFKAG-NH2 (disulfide 1-5, 14-31) [compound 149] | 0.01 to 1 | 0.01 to 1 |
| CDATCQFRKAIDDCYYRSWHSNVPGSVFKACMKQRKKRWLAG-NH2 (disulfide 1-5, 14-31) [compound 69] | 0.01 to 1 | 0.01 to 1 |
| CDATCQFRKAIDDCYYYAMHSNVPGSVWKACLKQKKKEFKAG-NH2 (disulfide 1-5, 14-31) [compound 78] | 0.01 to 1 | 0.01 to 1 |
| CDATCQFRKAIDDCYYYAMHSNVPGSVWKACMKQKKKEFKAG-NH2 (disulfide 1-5, 14-31) [compound 150] | 0.01 to 1 | 0.01 to 1 |
| CDATCQFRKAIDECAKQAHHSNVPGSVFKACMKQKKKEFKAG-NH2 (disulfide 1-5, 14-31) [compound 12] | 0.01 to 1 | < 0.01 |
| CDATCQFRKAIDECARQAHHSNVPGSVFKACMKQKKKEWKAGH (disulfide 1-5, 14-31) [compound 25] | 0.01 to 1 | < 0.01 |
| CDATCQYRKGLVACLYKKVAMQKRYSVFKACMKQKKKEFKAG-NH2 (disulfide 1-5, 14-31) [compound 46] | 1 to 100 | 0.01 to 1 |
| CEATCQFRKAIDDCARQAHHSNVPGSVFKACMKQKKKEWKAGH (disulfide 1-5, 14-31) [compound 11] | 0.01 to 1 | 0.01 to 1 |
| GCDATCQFRKAIDDCAKQAHHSNVPGSVFKACMKQKKKEFKAGH (disulfide 2-6, 15-32) [compound 59] | 0.01 to 1 | 0.01 to 1 |
